The text below walks through data of patent US7291730B2, “Pyrimidine compounds and their use” (Sumitomo Chemical Company, Limited, priority 2000, dated 2007).

The first data set has as its system Western Flower Thrips (Frankliniella occidentalis). As to the kind of experiment: Insecticidal test against western flower thrips, sprayed cucumber leaves (Test Example 3). Format: in vivo. Conditions: 500 ppm, sprayed 20 ml/cup onto cucumber, thirty larvae on cut first foliage leaves, after 7 days. As to the method: A formulation of a test compound obtained in Formulation Example 5 was diluted with water so that the active ingredient concentration came to 500 ppm to prepare a test spray solution. The seeds of cucumber were planted in polyethylene cups and grown until their first foliage leaves developed, and the above test spray solution was sprayed at the rate of 20 ml/cup onto these cucumber plants. After the chemical solution sprayed onto the cucumber plants was dried, the first foliage leaves were cut off and placed on a water-containing filter paper (70 mm in diameter) in a polyethylene cup (110 mm in diameter). Thirty larvae of western flower thrips (Frankliniella occidentalis) were set free in the polyethylene cup, and the lid was put on the polyethylene cup. After 7 days, the number of surviving insects was examined.
Regarding `CC#CCOc1cc(Oc2ccccc2F)ncn1` [(63)], the “number of surviving insects” value is listed as “zero”.

Regarding `CC#CCOc1cc(-c2ccccc2F)ncn1` [(55)], the “number of surviving insects” value is on record as “zero”.

With `C#CC(C)Oc1cc(-c2cccc(F)c2F)ncn1` (centres unmarked) [(134)], the “number of surviving insects” value is recorded as “zero”.

With `CC#CCOc1cc(Oc2ccc(F)cc2Cl)ncn1` [(16)], the “number of surviving insects” value is listed as “zero”.

In the case of `C#CCOc1cc(-c2cccc(F)c2F)ncn1` [(82)], the “number of surviving insects” value is “zero”.

As for `CC#CCOc1cc(-c2ccc(F)cc2F)ncn1` [(44)], the “number of surviving insects” value was “zero”.

In the case of `CC#CCOc1ncnc(Cc2ccccc2F)c1F` [(191)], the “number of surviving insects” value is listed as “zero”.

`C#CCOc1cc(-c2ccc(F)cc2)ncn1` [(58)]: the “number of surviving insects” value is reported as “zero”.

Take `C#CCOc1cc(Oc2c(F)cccc2F)ncn1` [(21)]: the “number of surviving insects” value is recorded as “zero”.

For `C#CCOc1cc(OCC#CCC)ncn1` [(5)], the “number of surviving insects” value was “zero”.

Regarding `CC#CCOc1cc(Oc2cc(F)ccc2F)ncn1` [(43)], the “number of surviving insects” value is reported as “zero”.

For `CC#CCOc1cc(OCC#CC(C)(C)C)ncn1` [(7)], the “number of surviving insects” value is given as “zero”.

For the molecule `CC#CCOc1cc(OCC#CCC)ncn1` [(6)], the “number of surviving insects” value was “zero”.

Take `CC#CCOc1cc(-c2ccc(F)cc2)ncn1` [(59)]: the “number of surviving insects” value was “zero”.

For the molecule `CC#CCOc1ncnc(Oc2cccc(F)c2F)c1F` [(180)], the “number of surviving insects” value is listed as “zero”.

For the molecule `CC#CCOc1cc(OCC#CC)ncn1` [(1)], the “number of surviving insects” value was “zero”.

Regarding `C#CCOc1cc(OCC#CC)ncn1` [(2)], the “number of surviving insects” value is given as “zero”.

On to `CC#CCOc1ncnc(Oc2c(F)cccc2F)c1F` [(190)], for which the “number of surviving insects” value is recorded as “zero”.

Take `CC#CCOc1cc(OC2CCCC(C)C2)ncn1` (centres unmarked) [(182)]: the “number of surviving insects” value was “zero”.

For the molecule `C#CCOc1cc(Oc2ccccc2Cl)ncn1` [(19)], the “number of surviving insects” value was “zero”.

Take `C#CCOc1cc(-c2ccccc2)nc(C)n1` [(77)]: the “number of surviving insects” value is “zero”.

Regarding `C#CCOc1cc(Oc2cccc(Cl)c2)ncn1` [(15)], the “number of surviving insects” value is listed as “zero”.

System in the next data set: not given
Test: not given
Details: not given
By melting point is commonly meant the temperature of the solid-liquid transition. As to `CC#CCOc1cc(Oc2ccc(C#N)cc2)ncn1` [present compound (41), 4-(2-butynyloxy)-6-(4-cyanophenoxy)pyrimidine], the melting point turned out to be 162 °C.

As to `CC#CCOc1cc(Nc2ccccc2)ncn1` [present compound (53), 4-anilino-6-(2-butynyloxy)pyrimidine], the melting point stood at 159.3 °C.

As for `CC#CCOc1cc(-c2ccc(F)cc2F)ncn1` [present compound (44), 4-(2-butynyloxy)-6-(2,4-difluorophenyl)pyrimidine], the melting point was determined as 63.9 °C.

In turn, `CC#CCOc1cc(Oc2ccc(Cl)cc2F)ncn1` [present compound (4), 4-(2-butynyloxy)-6-(4-chloro-2-fluorophenoxy)pyrimidine] showed a melting point of 117.7 °C.

For the molecule `C#CCOc1cc(OCC#C)ncn1` [present compound (52), 4,6-bis(2-propynyloxy)pyrimidine], the melting point worked out at 74 °C.

`CC#CCOc1cc(Oc2cccc(F)c2)ncn1` [present compound (61), 4-(3-fluorophenoxy)-6-(2-butynyloxy)pyrimidine] returned a melting point of 60.1 °C.

The molecule `CC#CCOc1cc(Oc2c(F)cc(F)cc2F)ncn1` [present compound (45), 4-(2-butynyloxy)-6-(2,4,6-trifluorophenoxy)pyrimidine] displayed a melting point of 60.3 °C.

As to `CC#CCOc1cc(Cc2c(F)cccc2F)ncn1` [present compound (80), 4-(2,6-difluorobenzyl)-6-(2-butynyloxy)pyrimidine], the melting point is 57.6 °C.

Regarding `C#CCOc1cc(Oc2cc(Cl)cc(Cl)c2)ncn1` [present compound (24), 4-(3,5-dichlorophenoxy)-6-(2-propynyloxy)pyrimidine], the melting point was determined as 136.5 °C.

In the case of `CC#CCOc1cc(Oc2ccc([N+](=O)[O-])cc2F)ncn1` [present compound (65), 4-(2-fluoro-4-nitrophenoxy)-6-(2-butynyloxy)pyrimidine], the melting point was found to be 132.1 °C.

Regarding `CC#CCOc1cc(Oc2cccc(C#N)c2)ncn1` [present compound (40), 4-(2-butynyloxy)-6-(3-cyanophenoxy)pyrimidine], the melting point was 121.2 °C.

`CC#CCOc1cc(Oc2ccc(F)c(C(F)(F)F)c2)ncn1` [present compound (48), 4-(2-butynyloxy)-6-(4-fluoro-3-trifluoromethylphenoxy)pyrimidine] came in with a melting point of 90.1 °C.

For the molecule `CC#CCOc1cc(N(C)c2ccccc2)ncn1` [present compound (93), 4-(N-methyl-N-phenylamino)-6-(2-butynyloxy)pyrimidine], the melting point worked out at 57.6 °C.

On to `CC#CCOc1cc(Cc2cccc(F)c2)ncn1` [present compound (100), 4-(2-butynyloxy)-6-(3-fluorobenzyl)pyrimidine], for which the melting point came to 51.5 °C.

`C#CCOc1cc(Oc2cc(Cl)ccc2Cl)ncn1` [present compound (25), 4-(2,5-dichlorophenoxy)-6-(2-propynyloxy)pyrimidine] showed a melting point of 87.7 °C.

In the case of `C#CCOc1cc(Oc2ccccc2C)ncn1` [present compound (27), 4-(2-methylphenoxy)-6-(2-propynyloxy)pyrimidine], the melting point stood at 64.8 °C.

`C#CCOc1cc(Oc2ccc(OC)cc2)ncn1` [present compound (31), 4-(4-methoxyphenoxy)-6-(2-propynyloxy)pyrimidine]: the melting point is 72 °C.

The molecule `CC#CCOc1cc(N(C)c2cccc(F)c2F)ncn1` [present compound (66), 4-(N-methyl-N-(2,3-difluorophenyl)amino)-6-(2-butynyloxy)pyrimidine] had a melting point of 77.5 °C.

In turn, `C#CCOc1cc(Oc2c(F)cccc2F)ncn1` [present compound (21), 4-(2,6-difluorophenoxy)-6-(2-propynyloxy)pyrimidine] had a melting point of 67.2 °C.

For the molecule `C#CCOc1cc(Oc2ccc(Cl)cc2)ncn1` [present compound (14), 4-(4-chlorophenoxy)-6-(2-propynyloxy)pyrimidine], the melting point came out at 100.3 °C.

The molecule `C#CCOc1cc(Oc2cccc(Cl)c2)ncn1` [present compound (15), 4-(3-chlorophenoxy)-6-(2-propynyloxy)pyrimidine] showed a melting point of 71.6 °C.

In turn, `C#CCOc1cc(Oc2ccc(Cl)cc2Cl)ncn1` [present compound (22), 4-(2,4-dichlorophenoxy)-6-(2-propynyloxy)pyrimidine] registered a melting point of 106.7 °C.

Molecule `CC#CCOc1cc(Oc2c(F)cccc2F)ncn1` [present compound (33), 4-(2-butynyloxy)-6-(2,6-difluorophenoxy)pyrimidine] displayed a melting point of 79.8 °C.

Consider `C#CCOc1cc(Oc2ccc(Cl)c(Cl)c2)ncn1` [present compound (23), 4-(3,4-dichlorophenoxy)-6-(2-propynyloxy)pyrimidine], for which the melting point worked out at 109.2 °C.

Regarding `CC#CCOc1cc(Nc2cccc(F)c2F)ncn1` [present compound (73), 4-(N-(2,3-difluorophenyl)amino)-6-(2-butynyloxy)pyrimidine], the melting point was found to be 147.6 °C.

In the case of `CC#CCOc1cc(Oc2ccc(F)cc2)ncn1` [present compound (62), 4-(4-fluorophenoxy)-6-(2-butynyloxy)pyrimidine], the melting point turned out to be 115.8 °C.

Molecule `CC#CCOc1cc(Oc2cccc(C(C)=O)c2)ncn1` [present compound (71), 4-(2-butynyloxy)-6-(3-acetylphenoxy)pyrimidine] yielded a melting point of 94 °C.

In turn, `C#CCOc1cc(Oc2ccccc2Cl)ncn1` [present compound (19), 4-(2-chlorophenoxy)-6-(2-propynyloxy)pyrimidine] came in with a melting point of 76.2 °C.

Molecule `CC#CCOc1cc(Oc2ccc(F)c(F)c2)ncn1` [present compound (10), 4-(2-butynyloxy)-6-(3,4-difluorophenoxy)pyrimidine] had a melting point of 109.7 °C.

In the case of `C#CCOc1cc(Oc2ccc(F)cc2)ncn1` [present compound (35), 4-(4-fluorophenoxy)-6-(2-propynyloxy)pyrimidine], the melting point stood at 81.4 °C.

`CC#CCOc1cc(OCC#CCC)ncn1` [present compound (6), 4-(2-butynyloxy)-6-(2-pentynyloxy)pyrimidine] came in with a melting point of 67.4 °C.

The molecule `C#CCOc1cc(-c2ccccc2)ncn1` [present compound (37), 4-phenyl-6-(2-propynyloxy)pyrimidine] had a melting point of 65.1 °C.

Molecule `CC#CCOc1cc(-c2ccccc2)ncn1` [present compound (38), 4-(2-butynyloxy)-6-phenylpyrimidine] came in with a melting point of 59.6 °C.

Turning to `CC#CCOc1cc(OCc2cccc(F)c2F)ncn1` [present compound (76), 4-(2,3-difluorobenzyloxy)-6-(2-butynyloxy)pyrimidine], the melting point came out at 84.9 °C.

`C#CCOc1cc(Oc2ccccc2)ncn1` [present compound (51), 4-phenoxy-6-(2-propynyloxy)pyrimidine]: the melting point worked out at 71.1 °C.

`CC#CCOc1cc(OCC#CC)ncn1` [present compound (1), 4,6-bis(2-butynyloxy)pyrimidine] registered a melting point of 82.9 °C.

For the molecule `C#CCOc1cc(Oc2cccc(Cl)c2Cl)ncn1` [present compound (26), 4-(2,3-dichlorophenoxy)-6-(2-propynyloxy)pyrimidine], the melting point is 91.9 °C.
